The values below come from US20060110804A1, “Method of treating an organ for transplantation” (priority 2004, published 2006).

Entries after “also recorded” stand apart in the source; their conditions may differ.

In assay [1] the test system is liver grafts. As to the kind of experiment: CO fluxes in hepatic venous perfusate of ex vivo liver grafts (spectrophotometer). The arrangement: species or system rat. The protocol: (§1) Male Wistar rats of 190-230 g were allowed to take pellet chow and water without any restriction and then fasted for 6 hours. Subsequently, the rats were intraperitoneally injected with 40 μmol/kg hemin, a strong HO-1 inducer, and then fasted for 18 hours. […] As a hemin-untreated control, rats injected with physiological saline were fasted for 24 hours and then used for the experiment.
(§2) The rats injected with hemin or physiological saline were anesthetized by intraperitoneal injection of pentobarbital sodium (40 mg/kg body weight) and a PE-10 catheter for bile sample collection was inserted into the common bile duct of each rat. A 16-gauge catheter was inserted into the portal vein and 20 ml lactated Ringer's solution kept at 4° C. was passed through the catheter. Subsequently, rat livers were perfused with 20 ml University of Wisconsin solution (UW solution) of 4° C., excised and then preserved in the same solution at 4° C. for 16 hours. […]
(§3) The grafts prepared in Example 1 were measured for HO-1 protein expression by Western blot analysis, as described in an earlier document (see Document 20). CO fluxes in hepatic venous flow were also measured with a spectrophotometer according to a previously reported method of the inventors (see Document 16). […]

Assay [2] concerns liver grafts. As to the kind of experiment: Bile output of cold-preserved liver grafts during ex vivo reperfusion. The arrangement: species or system rat.
Method: The rats injected with hemin or physiological saline were anesthetized by intraperitoneal injection of pentobarbital sodium (40 mg/kg body weight) and a PE-10 catheter for bile sample collection was inserted into the common bile duct of each rat. A 16-gauge catheter was inserted into the portal vein and 20 ml lactated Ringer's solution kept at 4° C. was passed through the catheter. Subsequently, rat livers were perfused with 20 ml University of Wisconsin solution (UW solution) of 4° C., excised and then preserved in the same solution at 4° C. for 16 hours. […] After cold preservation for 16 hours, each liver graft was reperfused via the portal vein with 95% oxygen-5% carbon dioxide-saturated Krebs-Henseleit buffer (pH 7.4, 37° C.) at 4 ml/min/g liver in the presence of 30 μmol/L sodium taurocholate (see Document 4).
In the hemin-treated liver grafts from Example 1, after 16-hour cold preservation (Hemin/C16), bile samples were collected from the common bile duct every 5 minutes during 40 minute reperfusion. […] The hemin-untreated grafts receiving no cold preservation (Control) and 16-hour cold preservation (C16) were also provided for the same measurement.
The grafts were reperfused with carbogen-saturated Krebs-Henseleit buffer (pH 7.4, 37° C.) supplemented with bilirubin (Sigma Chemical, Co.) and/or CO in combination with 1 μmol/L ZnPP. […] Similarly, hemin-untreated (a) and hemin-treated (b) grafts were provided in the absence of ZnPP for use as controls.
The same experiment as described in Example 4 was repeated, except that the doses of bilirubin and/or CO were varied. After being cold-preserved for 16 hours, the hemin-treated grafts were reperfused for 30 minutes in the presence of ZnPP using reperfusate containing various concentrations of bilirubin and/or CO, and then measured for the levels of bile output, bile salts and phospholipids in bile from the grafts, which were determined in percentages relative to those obtained by reperfusion in the absence of ZnPP.
The subject of assay [3] is liver grafts. The assay is described as follows: Bilirubin-IXα concentration in bile of ex vivo reperfused liver grafts (ELISA, antibody 24G7). The conditions noted are these: hemin-treated, cold-preserved 16 hours, reperfused 30 minutes. Set-up: species or system rat. The protocol: as §2, with “hours. Since acute oxidative stress would eventually occur, as judged by intracellular hydroperoxide production which occurred concurrently with a reduction of bile formation, a time period of 16 hours was selected for preservation purposes.” for “hours.”
In the hemin-treated liver grafts from Example 1, after 16-hour cold preservation (Hemin/C16), bile samples were collected from the common bile duct every 5 minutes during 40 minute reperfusion. The bile samples collected at 30 minutes after initiation of reperfusion were also measured for their bilirubin-IXα concentration by enzyme-linked immunosorbent assay detection using the monoclonal antibody 24G7 capable of recognizing both conjugated and unconjugated bilirubin fractions, as described in earlier documents (see Documents 21 and 22). […]

Assay [4] has as its system liver grafts. As to the kind of experiment: LDH released into hepatic venous perfusate of ex vivo reperfused liver grafts (liver cell damage). The arrangement: species or system rat. The note with it: hemin-treated control, 16-hour cold preservation (Hemin/C16), no ZnPP. The method, then: As in the case of Example 5, after being cold-preserved for 16 hours, the hemin-treated grafts were reperfused for 30 minutes in the presence of ZnPP using reperfusate containing varying concentrations of bilirubin, and then measured for the amount of lactate dehydrogenase (LDH) released into the hepatic venous perfusate, which was indicative of liver cell damage in the grafts. For use as controls, hemin-untreated grafts receiving 16-hour cold preservation (C16) and hemin-treated grafts receiving 16-hour cold preservation (Hemin/C16) were provided in the absence of ZnPP. The amount of LDH was measured as described in an earlier document (see Document 24). […] The grafts were divided into the following test groups: (a) receiving 5 minute reperfusion with the bilirubin-containing buffer and subsequent 35 minute reperfusion in the absence of bilirubin, (b) receiving 15 minute reperfusion with the bilirubin-containing buffer and subsequent 25 minute reperfusion in the absence of bilirubin, and (c) receiving 40 minute perfusion with the bilirubin-containing buffer. As a control group (d), the cold-preserved grafts received only bilirubin-free perfusion for 40 minutes. Bile output was then measured over time for each group. Further, FIGS. 6(B) and (C) show the relationship between reperfusion time with the bilirubin-containing buffer and bile output from the grafts and the relationship between reperfusion time and venous LDH concentration, respectively.

The conditions of assay [5]: hemin-treated rats, n=4; cited from earlier work.
Assay [6] has as its system HO-1 protein. As to the kind of experiment: HO-1 protein expression in liver grafts by Western blot analysis. The arrangement: species or system rat. The note with it: hemin-treated (40 μmol/kg i.p.) vs hemin-untreated grafts. The protocol: as §1, §2, §3

On to hemin, for which the “venous CO fluxes” value in assay [1] (hemin-treated (40 μmol/kg i.p.) vs hemin-untreated grafts) is recorded as “significant increases”. Besides, the “increase in hepatic venous CO fluxes” value in assay [1] (hemin-treated grafts, 16-hour cold preservation with or without 30 minute reperfusion, vs hemin-untreated grafts) is ~3 fold. Also, the bile output entry in assay [2] (hemin-treated grafts after 16-hour cold preservation (Hemin/C16) vs hemin-untreated cold-preserved grafts (C16)) is on record as “higher plateau; also recorded: increase in bile output”. Besides, the “time of bile output recovery after initiation of reperfusion” value in assay [2] (hemin-treated grafts, 16-hour cold preservation (Hemin/C16)) was found to be 10 min. Besides, in assay [3], the “bilirubin fluxes in bile, relative to hemin-untreated group” value is “about 1.5 fold”. Besides, the “venous LDH release” value in assay [4] is given as “almost complete inhibition”. In addition, in assay [5], the “plasma bilirubin concentration in portal blood” value is 3.2 ± 0.8 µmol/L. For the same substance, the HO-1 expression result in assay [6] was “significant increases”.
